Experimental data published in patent US6506791B2, “Method of treatment of protozoan infections in fish” (Jacksonville State University, priority 2000, dated 2003).

Legend:
humans = conditions: according to the FDA (1982); cited from earlier work
[1] = cited from earlier work
Ick [2] = test: LIGHT EXPERIMENT under greenhouse conditions (effect of light intensity); type: cell-based, Ichthyophthirius multifiliis
Procedure: (§1) An in vivo study was conducted involving the direct dosing of Ick parasites with Phloxine B. 1 μl of Ick theronts, both free-swimming tomites and non-ruptured cysts, and 9 μl of a Phloxine solution containing either 1000, 100, 10, 1 and 0 ppm of Phloxine B were placed into 100×15 mm tri-plate petri dishes providing 3 replicates for each treatment. 1 set of the plates was left exposed to ambient light (6 mE m^−2s^−1) for 5 hr (LIGHT EXPERIMENT), while the other set was kept in the dark for 4 hr then exposed to ambient light for 1 hr (DARK EXPERIMENT). Percent mortality was assessed, then both light and dark plates received a second dose of Phloxine B at the same concentration as before and treated in the same manner.
An experiment was designed to test the effect of light intensity on the effectiveness of Phloxine B treatment of Ick. The previous experiments described in Examples 1 and 2 were conducted in the lab. The ambient light intensity in the lab was very low, 6 μmol m^−2s^−1. An experiment was conducted as following the protocol of Example 1, except the experiment was conducted in a greenhouse to better mimic natural light conditions.

Ick [3] = test: Light and dark experiment with doubled exposure times (Example 2); type: cell-based, Ichthyophthirius multifiliis; conditions: 8 hr dark then 2 hr light or 10 hr light
Procedure: as §1
A light and dark experiment were set up following the protocol in Example 1, but exposure times were doubled—8 hr dark then 2 hr light or 10 hr light.

[4] = tested on: Ick trophozoite stage attached to the fish host; test: Aquarium treatment of fish infected with Ick, microscopic examination; type: in vivo, Ichthyophthirius multifiliis; conditions: around 5 mg/L in aquarium, added in darkness, at least eight hours absorption, then artificial lamps
Excerpt: The effectiveness of treatments of photoactive dyes on parasite control in a particular fish population can be determined by those skilled in the art by monitoring the general behavior of the fish (swimming, feeding, etc.) and the appearance of the parasite by microscopic examination. For example, live Ick trophozoites may be monitored using image analysis microscopy using a Image-Pro Plus V. 4.0.0.13, available from Media Cybernetics, L.P.
In one embodiment of the invention, the photoactive dye, Phloxine B, is added as a dry powder to an aquarium containing fish infected with Ick. The Phloxine B is added to achieve a final concentration of around 5 mg/L. The Phloxine B is added to the aquarium in darkness and at least eight hours of absorption is allowed before photoactivation. Photoactivation is achieved by exposing the Ick infected fish to light from artificial lamps. […] Although this particular embodiment is performed in a laboratory setting, those skilled in the art will understand that the teachings can be adapted to a commercial operation without undue experimentation.

[5] = exposure to sunlight; cited from earlier work
[6] = tested on: Ick theronts, both free-swimming tomites and non-ruptured cysts; test: Direct dosing of Ick parasites with Phloxine B, DARK EXPERIMENT (lab conditions); type: cell-based, Ichthyophthirius multifiliis
Procedure: as §1

dog = conditions: cited from earlier work
rat = conditions: cited from earlier work
[7] = tested on: Ick theronts, both free-swimming tomites and non-ruptured cysts; test: Direct dosing of Ick parasites with Phloxine B, LIGHT EXPERIMENT (ambient light, lab); type: cell-based, Ichthyophthirius multifiliis
Procedure: as §1

mouse = conditions: cited from earlier work

For `O=C([O-])c1c(Cl)c(Cl)c(Cl)c(Cl)c1-c1c2cc(Br)c(=O)c(Br)c-2oc2c(Br)c([O-])c(Br)cc12.[Na+].[Na+]` [Phloxine B, 2′, 4′, 5′ 7′-tetrabromo-4,5,6,7-tetrachlorofluorescein, disodium salt], the “Relatively non-toxic ingested amount” value (humans) is listed as ≤ 1.25 mg/kg body weight, the Water solubility [1] is listed as “greater than 120 mg/l” and the Percent mortality (Ick [2]; 1 ppm) is listed as “No effect”. The Percent mortality (Ick [2]; 10 ppm, 1 dose) was “No effect”, the Percent mortality (Ick [2]; 100 ppm, 1 dose) was 50% Mortality and the Percent mortality (Ick [2]; 1000 ppm, 1 dose) was 100% Mortality. For the same compound, the “Effect of exposure time on effectiveness of the dye” value (Ick [3]) was “longer exposure time increased the effectiveness”, the “Effectiveness against trophozoite stage attached to the fish host” value [4] was “effective against the formerly invulnerable trophozoite stage” and the “Time to degradation and detoxification” value [5] was < 1 h. For the same compound, the Percent mortality ([6]; 1 ppm, 1 dose, dark 4 hr then ambient light 1 hr) was “No effect”, the Percent mortality ([6]; 1 ppm, 2 doses, dark 4 hr then ambient light 1 hr per dose) was “No effect” and the Percent mortality ([6]; 10 ppm, 1 dose, dark 4 hr then ambient light 1 hr) was “No effect”. The Percent mortality ([6]; 10 ppm, 2 doses, dark 4 hr then ambient light 1 hr per dose) was “No effect”, the Percent mortality ([6]; 100 ppm, 1 dose, dark 4 hr then ambient light 1 hr) was “No effect” and the Percent mortality ([6]; 100 ppm, 2 doses, dark 4 hr then ambient light 1 hr per dose) was 10% Mortality. The Percent mortality ([6]; 1000 ppm, 1 dose, dark 4 hr then ambient light 1 hr) was 40% Mortality, the Percent mortality ([6]; 1000 ppm, 2 doses, dark 4 hr then ambient light 1 hr per dose) was 95% Mortality and the LD50 (dog) was > 4600 mg/kg. The LD50 (rat) was 8400 mg/kg, the Percent mortality ([7]; 1 ppm, 1 dose, ambient light 5 hr) was “No effect” and the Percent mortality ([7]; 1 ppm, 2 doses, ambient light 5 hr per dose) was “No effect”. For the same compound, the Percent mortality ([7]; 10 ppm, 1 dose, ambient light 5 hr) was “No effect”, the Percent mortality ([7]; 10 ppm, 2 doses, ambient light 5 hr per dose) was “No effect” and the Percent mortality ([7]; 100 ppm, 1 dose, ambient light 5 hr) was 20% Mortality. It also gave a Percent mortality ([7]; 100 ppm, 2 doses, ambient light 5 hr per dose) of 80% Mortality, a Percent mortality ([7]; 1000 ppm, 1 dose, ambient light 5 hr) of 80% Mortality and a Percent mortality ([7]; 1000 ppm, 2 doses, ambient light 5 hr per dose) of 100% Mortality. The “Uptake of the dye by free-swimming and encysted organisms” value ([7]; observation from Examples 1-3) was “taken up both free-swimming and encysted organisms” and the LD50 (mouse) was 310 mg/kg.
